Data on 18 compounds can be found in article PMC9850959 (European journal of medicinal chemistry, 2019).

For data set [1] the following is noted: cited from earlier work.
The conditions of data set [2]: cited from earlier work. The source holds these as a separate data set.
For a further data set, the target named is T1, human nSMase2 (Homo sapiens, UniProt Q9NY59).
T1 sequence (Q9NY59 1-655): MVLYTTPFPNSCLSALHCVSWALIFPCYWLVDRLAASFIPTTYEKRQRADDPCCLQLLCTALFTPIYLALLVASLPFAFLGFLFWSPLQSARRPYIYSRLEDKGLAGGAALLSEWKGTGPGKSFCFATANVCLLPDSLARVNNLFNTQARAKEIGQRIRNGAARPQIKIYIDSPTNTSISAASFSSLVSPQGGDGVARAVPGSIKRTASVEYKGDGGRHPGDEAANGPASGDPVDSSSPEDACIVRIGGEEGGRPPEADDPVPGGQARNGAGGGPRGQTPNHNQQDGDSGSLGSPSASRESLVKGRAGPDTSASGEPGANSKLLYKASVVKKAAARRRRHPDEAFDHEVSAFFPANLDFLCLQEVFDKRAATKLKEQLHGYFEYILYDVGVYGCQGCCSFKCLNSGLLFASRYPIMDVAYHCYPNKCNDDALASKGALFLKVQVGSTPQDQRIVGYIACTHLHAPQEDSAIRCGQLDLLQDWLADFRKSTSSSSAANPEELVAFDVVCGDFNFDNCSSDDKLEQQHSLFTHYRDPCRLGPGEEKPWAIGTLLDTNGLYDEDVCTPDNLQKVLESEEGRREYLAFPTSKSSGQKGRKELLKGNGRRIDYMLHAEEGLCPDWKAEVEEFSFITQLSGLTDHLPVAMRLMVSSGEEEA
In words: fluorescence-based coupled nSMase2 assay. The settings on record: for nSMase2 inhibitory activity (in words): compared with DPTIP or parent analog. The data set is classed as biochemical.

Data set [3] is described as follows: phase I metabolic stability in human liver microsomes. The data set is classed as in vitro ADME.
Data set [4] can be described thus: phase I metabolic stability in mouse liver microsomes. The data set is classed as in vitro ADME.
Data set [5] is described as follows: oral pharmacokinetics in mice. The data set is classed as in vivo.
Data set [6] in a line: glucuronidation stability in mouse liver microsomes in the presence of UDPGA. The data set is classed as in vitro ADME.
For data set [7], the system named is AP, choline oxidase, and horseradish peroxidase. In words: counter screen assay without nSMase2 and sphingomyelin, with phosphorylcholine. The data set is classed as biochemical.
Data set [8] has as its system primary astrocyte cultures. The settings on record: cited from earlier work.
Data set [9] has as its system IL-1β-induced astrocyte-derived extracellular vesicle release. The settings on record: GFAP-GFP mice, brain injury model; cited from earlier work.
For another data set, the system named is nSMase2. The settings on record: with respect to sphingomyelin; cited from earlier work.

“Also recorded” adds a separate entry of the source. Structures can show the parent of a compound that is named as a salt.

As for `O=c1[nH]c(=S)[nH]c(-c2ccccc2)c1Cc1c(O)ccc2ccccc12` [Cambinol], the “metabolic stability (in words)” value in data set [1] is “metabolically unstable”. The “solubility compared to GW4869 (in words)” value in [2] is given as “better solubility compared to GW4869”.

Turning to `Oc1ccccc1-c1nc(-c2ccccc2)c(-c2cccs2)[nH]1` [Compound 6i], at human nSMase2, the “nSMase2 inhibitory activity (in words)” value was “complete loss of potency”.

For the compound `O=C(/C=C\c1ccc(/C=C\C(=O)Nc2ccc(C3=NCCN3)cc2)cc1)Nc1ccc(C2=NCCN2)cc1` [GW4869], the “aqueous solubility (in words)” value in [2] was “negligible aqueous solubility”.

As to `Oc1cccc(-c2nc(-c3ccccc3)c(-c3cccs3)[nH]2)c1` [Compound 6j], on human nSMase2, the “nSMase2 inhibitory activity (in words)” value is listed as “complete loss of potency”.

With `CC(C)(C)Oc1cc(-c2nc(-c3ccccc3)c(-c3cccs3)[nH]2)cc(OC(C)(C)C)c1O` [Compound 16, 2,6-Di-t-butoxy-4-(4-phenyl-5-(thiophen-2-yl)-1H-imidazol-2-yl)phenol], the “nSMase2 inhibitory activity (in words)” value on human nSMase2 was “decrease in potency”.

As for `Oc1c(OCC(F)(F)F)cc(-c2nc(-c3ccccc3)c(-c3cccs3)[nH]2)cc1OCC(F)(F)F` [Compound 12, 4-(4-Phenyl-5-(thiophen-2-yl)-1H-imidazol-2-yl)-2,6-bis(2,2,2-trifluoroethoxy)phenol], the “phase I metabolic stability (in words)” value in data set [3] and in data set [4] was “metabolic stability was completely regained” each time.

Consider `COc1cc(C2=NCCN2)cc(OC)c1O` [Compound 22, 4-(4,5-Dihydro-1H-imidazol-2-yl)-2,6-dimethoxyphenol hydrochloride], for which the “nSMase2 inhibitory activity (in words)” value at human nSMase2 is recorded as “complete loss of potency”.

As for `COc1cc(-c2nc(C(C)C)c(C(C)C)[nH]2)cc(OC)c1O` [Compound 25b, 4-(4,5-Diisopropyl-1H-imidazol-2-yl)-2,6-dimethoxyphenol hydrochloride], the “major metabolite in plasma” value in data set [5] (mouse plasma after oral administration) was “glucuronide”. Besides, the “plasma exposure compared to DPTIP (in words)” value in data set [5] (oral administration, mice) is given as “higher plasma exposure; also recorded: superior plasma pharmacokinetics”. The “CNS penetration (in words)” value in data set [5] (oral, mice) was “negligible CNS penetration”. The “phase I metabolic stability (in words)” value in [3] and in data set [4] was “metabolically stable” throughout. For the same compound, the remaining at 1 h in [6] (mouse, liver microsomes, pH 7.5) was below 20%.

Turning to `COc1cc(-c2nc(-c3ccccc3)c(-c3cccs3)[nH]2)cc(O)c1O` [Compound 6c, 3-Methoxy-5-(4-phenyl-5-(thiophen-2-yl)-1H-imidazol-2-yl)benzene-1,2-diol], in data set [7], the “inhibition in the counter assay (in words)” value (from here on “inhibition … (in words)”) is on record as “potent inhibition”.

For `Oc1c(OC2CCCC2)cc(-c2nc(-c3ccccc3)c(-c3cccs3)[nH]2)cc1OC1CCCC1` [Compound 9c, 2,6-Bis(cyclopentyloxy)-4-(5-phenyl-4-(thiophen-2-yl)-1H-imidazol-2-yl)phenol], the “nSMase2 inhibitory activity (in words)” value on human nSMase2 is “decrease in potency”.

Regarding `Oc1c(Cl)cc(-c2nc(-c3ccccc3)c(-c3cccs3)[nH]2)cc1Cl` [Compound 6e, 2,6-Dichloro-4-(4-phenyl-5-(thiophen-2-yl)-1H-imidazol-2-yl)phenol], the “nSMase2 inhibitory activity (in words)” value at human nSMase2 is recorded as “complete loss of activity”.

`COc1cc(-c2nc(-c3cccs3)c(-c3ccccc3)[nH]2)cc(OC)c1O` [DPTIP, 2,6-dimethoxy-4-[4-phenyl-5-(2-thienyl)-1H-imidazol-2-yl]phenol]: the “phase I metabolic stability (in words)” value in data set [3] and in [4] was “stable” throughout. Further, in [8], the “extracellular vesicle release (in words)” value is on record as “dose-dependently inhibit extracellular vesicle release”. In addition, the “IL-1β-induced astrocyte-derived extracellular vesicle release (in words)” value in data set [9] is recorded as “attenuate”. Besides, the mechanism of inhibition entry in the data set with nSMase2 is “noncompetitive”. For the same compound, in data set [6] (mouse liver microsomes, UDPGA, 1 h), the “loss of the parent compound” value was 33%.

Turning to `COc1cc(-c2nccs2)cc(OC)c1O` [Compound 19, 2,6-Dimethoxy-4-(thiazol-2-yl)phenol], the “nSMase2 inhibitory activity (in words)” value at human nSMase2 is on record as “substantial decrease in potency”.

As for `CC(C)Oc1cc(-c2nc(-c3ccccc3)c(-c3cccs3)[nH]2)cc(OC(C)C)c1O` [Compound 9b, 2,6-Diisopropoxy-4-(4-phenyl-5-(thiophen-2-yl)-1H-imidazol-2-yl)phenol], the “resistance to glucuronidation (in words)” value in [6] (mouse liver microsomes, UDPGA) is on record as “completely resistant to glucuronidation; also recorded: complete resistance to glucuronidation”.

On to `COc1cc(-c2nc(-c3ccccc3)c(-c3cccs3)[nH]2)cc(OC)c1OC` [Compound 6g], for which the “nSMase2 inhibitory activity (in words)” value at human nSMase2 was “completely inactive”.

In the case of `COc1cc(-c2ncc[nH]2)cc(OC)c1O` [Compound 3a, 4-(1H-Imidazol-2-yl)-2,6-dimethoxyphenol], the “loss of inhibitory potency relative to DPTIP” value at human nSMase2 amounted to 10 fold.

In the case of `Oc1ccc(-c2nc(-c3ccccc3)c(-c3cccs3)[nH]2)cc1` [Compound 6b, 4-(4-Phenyl-5-(thiophen-2-yl)-1H-imidazol-2-yl)phenol], the “loss of inhibitory potency relative to DPTIP” value at human nSMase2 was 100 fold. Further, the “inhibition … (in words)” value in [7] is recorded as “no longer distinguishable”.

`Oc1cc(-c2nc(-c3ccccc3)c(-c3cccs3)[nH]2)cc(O)c1O` [Compound 6d, 5-(4-Phenyl-5-(thiophen-2-yl)-1H-imidazol-2-yl)benzene-1,2,3-triol]: in [7], the “inhibition … (in words)” value is recorded as “potent inhibition”.
